Read-outs that look alike come from different tables or passages of the source.
How the values were obtained:
Assay type in all cases: cell-based
[1] = target: T1, protein kinases (human kinome) (Homo sapiens, UniProt P11387); details: TOP1 P11387
T1 sequence (P11387 1-765): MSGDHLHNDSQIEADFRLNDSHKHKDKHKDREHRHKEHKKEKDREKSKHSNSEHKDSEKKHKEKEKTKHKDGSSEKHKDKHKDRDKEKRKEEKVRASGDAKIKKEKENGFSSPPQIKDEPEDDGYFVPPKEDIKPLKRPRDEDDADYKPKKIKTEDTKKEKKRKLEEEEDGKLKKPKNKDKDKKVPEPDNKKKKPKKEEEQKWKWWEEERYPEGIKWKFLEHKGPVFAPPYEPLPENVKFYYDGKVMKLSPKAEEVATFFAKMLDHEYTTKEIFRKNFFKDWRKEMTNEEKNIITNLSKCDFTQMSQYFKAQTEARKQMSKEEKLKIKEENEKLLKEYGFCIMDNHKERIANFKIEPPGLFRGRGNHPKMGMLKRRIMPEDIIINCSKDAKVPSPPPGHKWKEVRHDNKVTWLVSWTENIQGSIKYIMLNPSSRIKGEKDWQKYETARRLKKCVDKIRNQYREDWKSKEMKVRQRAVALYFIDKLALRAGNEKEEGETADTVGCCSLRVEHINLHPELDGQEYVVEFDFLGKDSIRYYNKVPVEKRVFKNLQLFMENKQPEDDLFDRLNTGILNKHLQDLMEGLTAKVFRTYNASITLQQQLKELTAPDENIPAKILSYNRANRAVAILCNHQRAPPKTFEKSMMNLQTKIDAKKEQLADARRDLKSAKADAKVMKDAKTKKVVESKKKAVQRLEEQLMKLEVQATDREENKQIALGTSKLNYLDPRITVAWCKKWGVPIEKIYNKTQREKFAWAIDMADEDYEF

[2] = target: T2, protein kinases (human kinome) (Homo sapiens, UniProt O15197); details: for logFC: EPHB6 (O15197-1)
T2 sequence (O15197 32-1021): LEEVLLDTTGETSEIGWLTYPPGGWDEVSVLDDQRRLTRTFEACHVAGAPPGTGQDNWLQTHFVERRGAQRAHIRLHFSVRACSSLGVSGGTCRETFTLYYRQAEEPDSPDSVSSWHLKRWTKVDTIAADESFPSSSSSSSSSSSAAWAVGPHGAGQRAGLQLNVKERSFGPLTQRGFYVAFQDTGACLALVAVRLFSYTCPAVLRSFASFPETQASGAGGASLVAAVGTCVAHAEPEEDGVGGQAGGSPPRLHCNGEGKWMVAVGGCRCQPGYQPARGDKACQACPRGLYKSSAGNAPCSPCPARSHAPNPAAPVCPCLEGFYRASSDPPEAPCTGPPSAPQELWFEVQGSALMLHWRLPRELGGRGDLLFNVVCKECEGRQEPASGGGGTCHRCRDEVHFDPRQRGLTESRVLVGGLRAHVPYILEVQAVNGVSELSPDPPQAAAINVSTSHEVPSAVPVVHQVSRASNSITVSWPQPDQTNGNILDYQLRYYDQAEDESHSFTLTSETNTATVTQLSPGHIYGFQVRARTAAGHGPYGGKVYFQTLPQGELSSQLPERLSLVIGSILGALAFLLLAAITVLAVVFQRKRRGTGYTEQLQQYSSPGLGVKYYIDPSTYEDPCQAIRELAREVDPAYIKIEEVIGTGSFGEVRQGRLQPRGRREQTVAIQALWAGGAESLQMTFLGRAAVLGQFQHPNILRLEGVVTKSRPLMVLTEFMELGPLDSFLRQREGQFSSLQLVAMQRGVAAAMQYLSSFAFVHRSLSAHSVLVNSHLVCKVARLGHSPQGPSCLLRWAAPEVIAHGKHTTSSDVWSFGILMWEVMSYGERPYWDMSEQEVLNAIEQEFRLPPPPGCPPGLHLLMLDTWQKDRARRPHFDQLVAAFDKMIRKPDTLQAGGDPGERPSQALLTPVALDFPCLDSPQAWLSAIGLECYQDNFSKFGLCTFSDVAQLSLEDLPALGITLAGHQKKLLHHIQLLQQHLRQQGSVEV

[3] = target: protein kinases (human kinome) (Homo sapiens, UniProt P06239)
[4] = target: protein kinases (human kinome) (Homo sapiens, UniProt P12931); details: for logFC of SRC: Accession P12931; for logFC: SRC (P12931), direction down
[5] = target: protein kinases (human kinome) (Homo sapiens, UniProt P21127)
[6] = target: protein kinases (human kinome) (Homo sapiens, UniProt Q9NYL2)
[7] = LCK P06239-1, experiment wp160, 4 hr
[8] = LCK, accession P06239-1, experiment wp160, 4 hr, direction of change down
[9] = CDK11B P21127-1, experiment wp045
[10] = CDK11B P21127-1, experiment wp105
[11] = CDK11B P21127-1, experiment wp117
[12] = CDK11B P21127-1, experiment wp160, 4 hr
[13] = CDK11B P21127-1, experiment wp160, 8 hr
[14] = CDK11B P21127-1, experiment wp172
[15] = CDK11B P21127-1, experiment wp168
[16] = MAP3K20 Q9NYL2; experiment wp168
[17] = LCK, accession P06239-1, experiment wp081, direction of change down

Chain of protein kinases (human kinome) (Homo sapiens, UniProt P06239) (P06239 whole entry): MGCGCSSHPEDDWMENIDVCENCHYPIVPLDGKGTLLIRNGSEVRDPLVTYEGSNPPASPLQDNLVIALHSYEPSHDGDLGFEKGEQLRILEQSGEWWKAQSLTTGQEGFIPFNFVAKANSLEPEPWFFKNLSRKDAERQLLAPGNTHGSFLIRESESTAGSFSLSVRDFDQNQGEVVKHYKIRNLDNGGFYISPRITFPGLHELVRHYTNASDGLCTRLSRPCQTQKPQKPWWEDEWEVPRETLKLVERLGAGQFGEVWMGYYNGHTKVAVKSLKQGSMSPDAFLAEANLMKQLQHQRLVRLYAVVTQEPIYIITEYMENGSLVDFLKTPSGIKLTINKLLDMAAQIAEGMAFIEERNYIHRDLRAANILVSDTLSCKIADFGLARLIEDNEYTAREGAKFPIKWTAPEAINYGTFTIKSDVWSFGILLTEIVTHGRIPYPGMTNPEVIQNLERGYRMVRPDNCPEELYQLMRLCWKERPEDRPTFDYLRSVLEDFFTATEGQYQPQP
Chain of protein kinases (human kinome) (Homo sapiens, UniProt P12931) (P12931 whole entry): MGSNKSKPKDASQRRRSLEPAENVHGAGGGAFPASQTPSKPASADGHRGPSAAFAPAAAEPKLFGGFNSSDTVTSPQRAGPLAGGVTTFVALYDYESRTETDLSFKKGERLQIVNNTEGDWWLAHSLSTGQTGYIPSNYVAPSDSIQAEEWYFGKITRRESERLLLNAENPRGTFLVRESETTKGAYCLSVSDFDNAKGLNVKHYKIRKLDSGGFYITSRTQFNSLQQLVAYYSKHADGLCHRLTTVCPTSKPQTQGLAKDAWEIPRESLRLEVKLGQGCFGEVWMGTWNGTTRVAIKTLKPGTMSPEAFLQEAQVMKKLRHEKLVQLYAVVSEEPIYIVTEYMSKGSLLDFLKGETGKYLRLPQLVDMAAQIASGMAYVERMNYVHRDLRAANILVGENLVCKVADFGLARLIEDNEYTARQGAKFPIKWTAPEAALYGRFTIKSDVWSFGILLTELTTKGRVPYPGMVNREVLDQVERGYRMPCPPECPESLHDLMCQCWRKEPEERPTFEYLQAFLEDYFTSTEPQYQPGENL
Chain of protein kinases (human kinome) (Homo sapiens, UniProt Q9NYL2) (Q9NYL2 whole entry): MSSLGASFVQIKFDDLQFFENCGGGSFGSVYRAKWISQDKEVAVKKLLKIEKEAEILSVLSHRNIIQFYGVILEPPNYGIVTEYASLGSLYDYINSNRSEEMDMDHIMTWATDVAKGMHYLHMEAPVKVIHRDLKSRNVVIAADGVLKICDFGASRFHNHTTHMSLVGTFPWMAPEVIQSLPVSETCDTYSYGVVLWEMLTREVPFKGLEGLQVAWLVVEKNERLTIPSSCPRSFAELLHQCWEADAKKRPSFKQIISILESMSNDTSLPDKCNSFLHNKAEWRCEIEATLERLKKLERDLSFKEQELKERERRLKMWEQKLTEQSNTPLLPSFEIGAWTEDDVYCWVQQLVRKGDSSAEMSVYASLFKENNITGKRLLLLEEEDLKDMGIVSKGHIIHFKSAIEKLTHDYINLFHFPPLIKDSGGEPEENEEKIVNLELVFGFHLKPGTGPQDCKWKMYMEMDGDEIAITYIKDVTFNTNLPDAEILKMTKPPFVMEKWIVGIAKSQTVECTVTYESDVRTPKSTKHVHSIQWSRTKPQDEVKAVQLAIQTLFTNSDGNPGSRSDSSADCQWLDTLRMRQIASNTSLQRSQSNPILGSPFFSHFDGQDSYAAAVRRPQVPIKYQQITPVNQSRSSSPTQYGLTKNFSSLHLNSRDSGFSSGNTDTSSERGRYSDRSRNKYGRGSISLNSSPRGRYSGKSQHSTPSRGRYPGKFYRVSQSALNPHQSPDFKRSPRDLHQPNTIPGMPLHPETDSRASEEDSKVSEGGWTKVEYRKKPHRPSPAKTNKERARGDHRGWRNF
Chain of protein kinases (human kinome) (Homo sapiens, UniProt P21127) (P21127 whole entry): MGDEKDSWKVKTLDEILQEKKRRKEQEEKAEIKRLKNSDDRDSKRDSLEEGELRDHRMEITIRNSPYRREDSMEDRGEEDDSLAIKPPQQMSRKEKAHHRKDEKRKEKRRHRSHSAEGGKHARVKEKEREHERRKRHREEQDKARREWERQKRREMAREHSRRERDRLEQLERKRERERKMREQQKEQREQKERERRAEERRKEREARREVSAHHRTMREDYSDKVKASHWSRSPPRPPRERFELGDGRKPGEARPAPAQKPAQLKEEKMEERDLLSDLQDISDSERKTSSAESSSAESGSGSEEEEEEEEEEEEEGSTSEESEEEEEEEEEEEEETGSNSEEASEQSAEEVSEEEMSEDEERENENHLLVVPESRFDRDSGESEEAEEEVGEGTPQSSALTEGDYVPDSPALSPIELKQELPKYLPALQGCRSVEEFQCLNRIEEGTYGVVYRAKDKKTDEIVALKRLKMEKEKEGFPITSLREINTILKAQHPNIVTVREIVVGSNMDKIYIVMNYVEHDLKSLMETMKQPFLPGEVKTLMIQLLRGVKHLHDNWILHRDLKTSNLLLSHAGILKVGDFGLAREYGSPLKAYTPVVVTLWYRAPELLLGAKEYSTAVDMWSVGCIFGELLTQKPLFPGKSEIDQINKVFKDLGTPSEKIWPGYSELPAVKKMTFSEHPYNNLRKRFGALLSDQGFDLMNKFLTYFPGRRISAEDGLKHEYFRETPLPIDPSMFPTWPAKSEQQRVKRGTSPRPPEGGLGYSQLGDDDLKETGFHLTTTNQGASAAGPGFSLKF

CC(=O)c1c(C)c2cnc(Nc3ccc(N4CCN(CCOCCOCCOCCNC(=O)COc5cccc6c5C(=O)N(C5CCC(=O)NC5=O)C6=O)CC4)cn3)nc2n(C2CCCC2)c1=O (centres unmarked) [BSJ.03.123]
logFC ([1]; experiment wp084): −0.3381

Cc1ccc(NC(=O)c2cccc(C(F)(F)F)c2)cc1N1Cc2cnc(Nc3ccc(N4CCN(Cc5cn(CCCCCOc6cccc7c6C(=O)N(C6CCC(=O)NC6=O)C7=O)nn5)CC4)nc3)nc2N(C)C1=O (centres unmarked) [DB0646, N-(3-(7-((6-(4-((1-(5-((2-(2,6-Dioxopiperidin-3-yl)-1,3-dioxoisoindolin-4-yl)oxy)pentyl)-1H-1,2,3-triazol-4-yl)methyl)piperazin-1-v)pyridin-3-yl)amino)-1-methyl-2-oxo-1,4-dihydropyrimido[4,5-d]pyrimidin-3(2H)-yl)-4-methylphenyl)-3-(trifluoromethyl)benzamide]
logFC ([2]; experiment wp160, 4 hr): −0.3396 | logFC ([2]; experiment wp160, 8 hr): −0.6548 | logFC of EPHB6 (O15197-1) ([2]; experiment wp160, 4 hr): −0.3396 | logFC of EPHB6 (O15197-1) ([2]; experiment wp160, 8 hr): −0.6548 | logFC LCK [3, 7]: −0.4575 | logFC LCK ([3]; LCK P06239-1, experiment wp160, 8 hr): −0.5386 | logFC LCK [3, 8]: −0.4575 | logFC LCK ([3]; LCK, accession P06239-1, experiment wp160, 8 hr, direction of change down): −0.5386 | logFC LCK ([3]; LCK, accession P06239, experiment wp152, direction of change down): −0.4468 | logFC of LCK (P06239) ([3]; experiment wp152): −0.4468 | logFC of SRC ([4]; experiment wp152): −0.3941 | logFC of SRC ([4]; experiment wp160, 4 hr): −0.5186 | logFC of SRC ([4]; experiment wp160, 8 hr): −0.6833 | logFC ([4]; experiment wp152): −0.3941 | logFC ([4]; experiment wp160, 4 hr): −0.5186 | logFC ([4]; experiment wp160, 8 hr): −0.6833 | logFC [5, 9]: −0.4555 | logFC CDK11B [5, 9]: −0.4555 | logFC [5, 10]: −0.3542 | logFC CDK11B [5, 10]: −0.3542 | logFC [5, 11]: −0.4695 | logFC CDK11B [5, 11]: −0.4695 | logFC [5, 12]: −0.5122 | logFC CDK11B [5, 12]: −0.5122 | logFC [5, 13]: −0.644 | logFC CDK11B [5, 13]: −0.644 | logFC [5, 14]: −0.4624 | logFC CDK11B [5, 14]: −0.4624 | logFC ([5]; CDK11B P21127, experiment wp152): −0.5948 | logFC of CDK11B (P21127) ([5]; experiment wp152): −0.5948 | logFC MAP3K20 (Q9NYL2) ([6]; Experiment wp045): −0.4248 | logFC MAP3K20 (Q9NYL2) ([6]; Experiment wp107): −0.53 | logFC MAP3K20 (Q9NYL2) ([6]; Experiment wp160, 2 hr): −0.3293 | logFC MAP3K20 ([6]; MAP3K20 Q9NYL2; experiment wp045): −0.4248 | logFC MAP3K20 ([6]; MAP3K20 Q9NYL2; experiment wp107): −0.53 | logFC MAP3K20 ([6]; MAP3K20 Q9NYL2; experiment wp152): −0.6556 | logFC MAP3K20 ([6]; MAP3K20 Q9NYL2; experiment wp160, 2 hr): −0.3293 | logFC MAP3K20 ([6]; MAP3K20 Q9NYL2; experiment wp160, 4 hr): −0.6192 | logFC MAP3K20 ([6]; MAP3K20 Q9NYL2; experiment wp160, 8 hr): −0.9197 | logFC MAP3K20 ([6]; MAP3K20 Q9NYL2; experiment wp160; 4 hr): −0.6192 | logFC MAP3K20 ([6]; MAP3K20 Q9NYL2; experiment wp160; 8 hr): −0.9197 | logFC MAP3K20 ([6]; MAP3K20 Q9NYL2; experiment wp172): −0.3864 | logFC MAP3K20 (Q9NYL2) ([6]; experiment wp152): −0.6556

Cc1ccc(NC(=O)c2cccc(C(F)(F)F)c2)cc1N1Cc2cnc(Nc3ccc(N4CCN(CCCOc5cccc6c5C(=O)N(C5CCC(=O)NC5=O)C6=O)CC4)nc3)nc2N(C)C1=O (centres unmarked) [DB0662]
logFC ([2]; experiment wp168): −0.736 | logFC of EPHB6 (O15197-1) ([2]; Experiment wp168): −0.736 | logFC LCK ([3]; LCK P06239-1, experiment wp168): −0.9078 | logFC LCK ([3]; LCK, accession P06239-1, experiment wp168, direction of change down): −0.9078 | logFC of SRC ([4]; experiment wp168): −0.9018 | logFC of SRC (P12931) ([4]; Experiment wp168): −0.9018 | logFC [5, 15]: −0.5946 | logFC CDK11B [5, 15]: −0.5946 | logFC MAP3K20 [6, 16]: −0.737

Cc1ccc(NC(=O)c2cccc(C(F)(F)F)c2)cc1N1Cc2cnc(Nc3ccc(N4CCN(CCCCC(=O)N[C@H](C(=O)N5C[C@H](O)C[C@H]5C(=O)N[C@@H](C)c5ccc(-c6scnc6C)cc5)C(C)(C)C)CC4)nc3)nc2N(C)C1=O [DB1113]
logFC [5, 15]: −0.8736 | logFC CDK11B [5, 15]: −0.8736 | logFC MAP3K20 [6, 16]: −1.38

CC(C)(C)c1nc(-c2cccc(NS(=O)(=O)c3c(F)cccc3F)c2F)c(-c2ccnc(NCCOCCNC(=O)CCOCCOCCNc3cccc4c3CN(C3CCC(=O)NC3=O)C4=O)n2)s1 (centres unmarked) [DD.03.107]
logFC ([1]; experiment wp147, 1 uM): −0.3823 | logFC ([1]; experiment wp147, 2 uM): −0.4234 | logFC ([1]; experiment wp147, 4 uM): −0.4699

Cc1ncsc1-c1ccc([C@H](C)NC(=O)[C@@H]2C[C@@H](O)CN2C(=O)[C@@H](NC(=O)CCCCCN2CCN(c3ccc(Nc4ncc5scc(-c6cccc(NS(C)(=O)=O)c6)c5n4)cc3)CC2)C(C)(C)C)cc1 [RSS0680, (2S,4R)-1-((S)-3,3-Dimethyl-2-(6-(4-(4-((7-(3-(methylsulfonamido)phenyl)thieno[3,2-d]pyrimidin-2-yl)amino)phenyl)piperazin-1-yl)hexanamido)butanoyl)-4-hydroxy-N—((S)-1-(4-(4-methylthiazol-5yl)phenyl)ethyl)pyrrolidine-2-carboxamide]
logFC ([1]; experiment wp080): −0.4687

Cn1c(=O)c(-c2c(Cl)cccc2Cl)cc2cnc(Nc3ccc(OCCNC(=O)CCCCCCNC(=O)COc4cccc5c4C(=O)N(C4CCC(=O)NC4=O)C5=O)cc3)nc21 (centres unmarked) [SB1.G.192.1]
logFC ([2]; experiment wp071): −0.6259 | logFC ([2]; experiment wp131): −0.5189 | logFC of EPHB6 (O15197-1) ([2]; experiment wp071): −0.6259 | logFC of EPHB6 (O15197-1) ([2]; experiment wp131): −0.5189 | logFC LCK ([3]; LCK P06239-1, experiment wp081): −1.748 | logFC LCK [3, 17]: −1.748

CC(C)S(=O)(=O)c1ccccc1Nc1nc(Nc2ccc(N3CCN(CCOCCNC(=O)CNc4cccc5c4C(=O)N(C4CCC(=O)NC4=O)C5=O)CC3)cc2)ncc1Cl (centres unmarked) [SK.3.91]
logFC LCK ([3]; LCK P06239-1, experiment wp160, 2 hr): −0.4627 | logFC LCK [3, 7]: −1.173 | logFC LCK ([3]; LCK, accession P06239-1, experiment wp160, 2 hr, direction of change down): −0.4627 | logFC LCK [3, 8]: −1.173 | logFC of SRC ([4]; experiment wp160, 4 hr): −0.5292 | logFC ([4]; experiment wp160, 4 hr): −0.5292

Cc1ccc(C(=O)Nc2ccc(CN3CCN(CCOCCOCCNC(=O)CNc4cccc5c4C(=O)N(C4CCC(=O)NC4=O)C5=O)CC3)c(C(F)(F)F)c2)cc1C#Cc1cnc2cccnn12 (centres unmarked) [TL13.150]
logFC LCK ([3]; LCK P06239-1, experiment wp081): −0.7129 | logFC LCK [3, 17]: −0.7129

From patent publication US20240269139A1, “COMPOUNDS FOR TARGETED PROTEIN DEGRADATION OF KINASES” (DANA-FARBER CANCER INSTITUTE, INC., priority 2020, published 2024)
